Columns and labels:
LSK Flk2− cells [1] = test: Ex vivo culture of sorted LSK Flk2− cells with PTEN and/or GSK-3β inhibitors; assay type: cell-based, mouse; conditions: for Expansion of LSK cells compared to control (photographs): 17 and 23 days culture, 1 μM CHIR99021, 200 nM BpV(pic); for Expansion of LSK Flk2− cells compared to media without either inhibitor: 28 days culture, inhibitor added individually
Description: LSK or LSK Flk2^− cells were sorted into 96-well U-bottom tissue culture plates at 100 cells/well with 200 μl media/well. Cells were incubated at 37° C., 5% O2, 5% CO2 (balance N2) for the indicated number of days. One-half total volume of media (see Table 1, below for the base media) was carefully pipetted from the top and replaced with fresh media every other day.
One hundred LSK Flk2^− cells were sorted from wild-type (C57Bl/6) mice and cultured in (1) media, (2) media+1 μM CHIR99021 (a GSK-3β inhibitor, a gift from Dr. Sheng Ding), (3) media+200 nM Dipotassium Bis-peroxo(picolinato)oxovanadate (BpV(pic), a PTEN inhibitor, available from Calbiochem, Cat. No. 203705), (4) media+1 μM CHIR99021+200 nM BpV(pic), (5) media+200 nM Shikonin (also a PTEN inhibitor, available from Calbiochem, Cat. No. 565850), and (6) media+200 nM Shikonin+1 μM CHIR99021. […] Cells were cultured as described above. […] Cells were examined at 17 days of culture (FIG. 3B, original magnification 100×) and 23 days (FIG. 3C, original magnification 40×).
LSK Flk2^− cells at 28 days culture in the indicated media conditions were examined (FIG. 3D, original magnification 200×).
FACS analysis of 28 day LSK Flk2^− cells cultured in media+BpV(pic)+CHIR99021 (FIG. 3E) was performed. Cells were pre-gated on live, lineage negative cells.
Fold expansion of LSK Flk2^− cells after 28 days culture in (1) media, (2) media+BpV(pic), (3) media+CHIR99021, and (4) media+CHIR99021+BpV(pic) were analyzed.
Cells cultured for 9 days in (1) media, (2) media+BpV(pic) (200 nM), (3) media+CHIR99021 (100 nM), and (4) media+CHIR99021 (100 nM)+BpV(pic) (200 nM) were re-sorted for LSK Flk2^− cells, and fold expansion of LSK Flk2^− cells after 9 days culture in the indicated conditions was determined (FIG. 3I).
FACS analysis was performed on 9 day LSK Flk2^− cells cultured in media+BpV(pic) (200 nM)+CHIR99021 (100 nM) (FIG. 3J). Cells were pre-gated on live, lineage negative cells.

LSK Flk2− cells [2] = test: Transplantation of cultured sorted LSK Flk2− cells into lethally irradiated CD45.1+ recipient mice with competitor cells; assay type: in vivo, mouse; conditions: 1000 re-sorted LSK Flk2− cells from 28 day cultures; peripheral blood at 4 weeks post-transplant
Description: Cells were harvested from the wells prior to transplantation by pipetting up and down several times before transferring to a fresh tube. Residual was then collected by adding more media and repeating. Cells were washed in DMEM (Invitrogen, Cat. No. 31053) without phenol red and added to the appropriate number of whole bone marrow rescue cells from a congenic donor (for 200,000 rescue cells+1,000 re-sorted LSK Flk2^− cells (FIGS. 3F-3H) or the non-adherent product of 10 days culture of 100 LSK Flk2^− cultured cells (FIGS. 3I-3K) per mouse as indicated). […]
Repopulation was measured at 4 weeks post-transplant by collection of periperal blood, red blood cell lysis, and staining of CD45.1 (recipient) compared to CD45.2 (donor) engraftment using antibodies purchased from eBiosciences (FITC conjugated CD45.2 (Cat. No. 11-0454-85) and PE-Cy5 conjugated CD45.1 (Cat. No. 15-0453-82)). […] Multi-lineage reconstitution was determined by CD3, B220 (for lymphoid) and Gr1, Mac-1 (for myeloid), as described above.
Cells cultured for 28 days in (1) media, (2) media+BpV(pic), (3) media+CHIR99021 and (4) media+CHIR99021 (1 μM)+BpV(pic) (200 nM) were re-sorted for LSK Flk2^− cells. […] At 4 weeks post-transplant, peripheral blood was analyzed for donor (FIG. 3G) and multi-lineage (FIG. 3H) engraftment. […]

LSK Flk2− cells [3] = test: Bone marrow MNC culture in HSC expansion media with CHIR99021 and PI3K inhibitor, FACS for LSK Flk2− expansion (FIG. 21); assay type: cell-based, mouse; conditions: for Expansion of LSK Flk2− cells: bone marrow MNCs cultured 10 days in ST media, 250 nM CHIR99021 or indicated concentrations of NVP-BEZ235
Description: Bone marrow MNCs were cultured for 10 days in an HSC expansion media with and without 250 nM CHIR99021, along with the indicated concentrations of PI3K inhibitor ([…]. et al. Identification and characterization of NVP-BEZ235, a new orally available dual phosphatidylinositol 3-kinase/mammalian target of rapamycin inhibitor with potent in vivo antitumor activity. (Molecular cancer therapeutics 7, 1851-1863 (2008)), and then subjected to FACS analysis to determine expansion of LSK Flk2^- cells. The inventors have developed a defined culture system utilizing only two cytokines, stem cell factor (SCF) and thrombopoietin (Tpo) (ST media), which have been shown previously to support HSC expansion in vitro (Zhang, […]. Murine hematopoietic stem cells change their surface phenotype during ex vivo expansion. Blood 105, 4314-4320 (2005)). […] Also, the ability of CHIR99021 to enhance expansion was negated by PI3K inhibition (FIG. 21).

LSK Flk2− cells [4] = test: Competitive repopulation after 14 days ex vivo expansion of sorted HSCs or unsorted MNCs with or without CHIR99021; assay type: in vivo, mouse; conditions: long-term engraftment, competitor cells present
Description: For the experimental results shown in FIG. 13A, sorted LSK Flk2^− cells and unsorted MNCs containing a known quantity of LSK Flk2^− cells (CD45.2^+) were cultured for 14 days in ST media with and without CHIR99021. The cultured product of 100 sorted or 5 unsorted LSK Flk2^− cells per mouse were transplanted into lethally irradiated recipients (CD45.1^+). 5 freshly isolated, unsorted LSK Flk2^− cells per mouse were transplanted into a separate group. 1×10^5 freshly isolated CD45.1^+ competitor/radioprotective cells were also added per mouse. Peripheral blood analysis of recipients at 16 weeks post-transplant depicts % chimerism.
For the experiments set forth in this Example, a particular HSC expansion media was used. […]
Bone marrow cells were harvested from C57Bl/6 (CD45.2) mice and made into a single cell suspension by gently drawing through a 22 g needle several times. […] Cells were counted and a fraction of mononuclear cells (MNCs) were stained for lineage markers using CD3, CD4, CD8, B220, IgM, Mac-1, Gr1, and Ter119 antibodies along with Kit, Sca-1, and Flk2 for mouse HSC analysis or CD34 and CD38 for human HSC analysis. […] Frequency of putative HSCs (lineage negative, Sca-1^+, Kit^+, […] for mouse or CD34^+, CD38^− cells for human) was determined by analyzing >3×10^5 cells per sample independently in triplicate. […]

LSK Flk2− cells [5] = test: Transplantation of ex vivo expanded MNCs without competitor/radioprotective cells, with serial (secondary) transplantation; assay type: in vivo, mouse
Description: For this experiment, MNCs with a known quantity of putative HSCs were cultured with and without CHIR99021 for 14 days. After 14 days, the cellular product of these cultures was transplanted into lethally-irradiated recipients at a dosage corresponding to an original input into culture of MNCs containing 5 LSKF^− cells per mouse. Freshly isolated MNCs containing either 5 or 500 LSKF− cells were also transplanted into 2 additional lethally irradiated groups of mice. No rescue/competitor bone marrow cells were included.
At 16 weeks post-transplant, mice transplanted with MNCs containing 5 or 500 LSKF^− cells freshly isolated or cultured for 14 days described in FIGS. 6A-6D were sacrificed and bone marrow isolated. A secondary transplantation was performed on new groups of lethally irradiated mice by transplanting 1×10^6 bone marrow cells from the original transplant group per mouse. At 4 weeks post-transplant, peripheral blood was collected from each transplant recipient and donor-derived repopulation was determined.

| Molecule | Expansion of LSK cells compared to control (photographs) (LSK Flk2− cells [1]) | Expansion of LSK Flk2− cells compared to media without either inhibitor (LSK Flk2− cells [1]) | Mice showing >1% engraftment (LSK Flk2− cells [2]) | Expansion of LSK Flk2− cells (LSK Flk2− cells [3]) | Average repopulation (LSK Flk2− cells [4]; 100 sorted putative HSCs cultured 14 days with CHIR99021 (250 nM)) [%] | Average repopulation (LSK Flk2− cells [4]; unsorted MNC cultures, 14 days with CHIR99021 (250 nM)) [%] | Donor reconstitution (LSK Flk2− cells [5]; 16 weeks post-secondary transplant, MNCs containing 5 LSK Flk2− cells expanded 14 days in ST media with CHIR99021, no competitor cells) [%] | Long-term repopulation equivalent to a greater dose of fresh, unexpanded cells (LSK Flk2− cells [5]; 16 weeks post-secondary transplantation, expanded MNCs with 5 putative HSCs vs fresh MNCs with 500) [fold] | Ability of CHIR99021 to enhance expansion of LSK Flk2− cells (LSK Flk2− cells [3]; PI3K inhibitor added together with 250 nM CHIR99021, 10 days) |
| --- | --- | --- | --- | --- | --- | --- | --- | --- | --- |
| Dipotassium Bis-peroxo(picolinato)oxovanadate [BpV(pic)] | greater expansion | significant expansion | 0/10 | – | – | – | – | – | – |
| Cc1c[nH]c(-c2cnc(NCCNc3ccc(C#N)cn3)nc2-c2ccc(Cl)cc2Cl)n1 [CHIR99021] | greater expansion | significant expansion | 4/8 | increased the expansion | 12.3 | 64.8 | 90.6±4.8 | 100 | – |
| Cn1c(=O)n(-c2ccc(C(C)(C)C#N)cc2)c2c3cc(-c4cnc5ccccc5c4)ccc3ncc21 [NVP-BEZ235] | – | – | – | decreased the ability of LSK Flk2^− cells to expand in a dose-dependent manner | – | – | – | – | negated |

— patent US10787643B2, “Methods, kits, and compositions for stem cell self-renewal” (Stowers Institute for Medical Research, priority 2007, dated 2020)
